Here are results for 25 molecules from patent US8389524B2, “Tricyclic nitrogen containing compounds as antibacterial agents” (Glaxo Group Limited, priority 2007, dated 2013).

Counter-ions that a name gives are not always drawn. A value given as a limit tells only on which side of the number the result lay.

The term MIC denotes the smallest concentration in the dilution series that meets the test's criterion for growth inhibition.

One assay concerns Mycobacterium tuberculosis H37Rv. In words: Mycobacterium tuberculosis H37Rv Inhibition Assay (resazurin, MIC). The conditions noted are these: ATCC 25618 / H37Rv, 144 h, H37Rv strain (ATCC25618), Middlebrook 7H9+ADC, six days at 37° C., resazurin fluorescence after 48 hours, read-out: MIC value. Format: cell-based. (The colour change of resazurin is a common sign of viable cells or microbes.)
With `O=c1ccc2ccc(=O)n3c2n1CC3CN1CCC(NCc2cc3c(cn2)OCCS3)CC1` (racemic) [Example 63, 1-[(4-{[(2,3-Dihydro[1,4]oxathiino[2,3-c]pyridin-7-yl)methyl]amino}-1-piperidinyl)methyl]-1,2-dihydro-4H,9H-imidazo[1,2,3-ij]-1,8-naphthyridine-4,9-dione hydrochloride (2:1 mixture of R:S)], the MIC is less than 2 µg/mL.

In the case of `O=C1CSc2cc(Br)c(CNC3CCN(CC4Cn5c(=O)ccc6ccc(=O)n4c65)CC3)nc2N1` (stereo not shown) [Example 4, 1-({4-[(7-Bromo-3-oxo-3,4-Dihydro-2H-pyrido[3,2-b][1,4]thiazin-6-yl-methyl)amino-1-piperidinyl}methyl)1,2-dihydro-4H,9H-imidazo[1,2,3-ij]-1,8-naphthyridine-4,9-dione hydrochloride], the MIC is less than 2 µg/mL.

For `CC1(NCc2cc3c(cn2)OCCS3)CCN(C[C@@H]2Cn3c(=O)ccc4ccc(=O)n2c43)CC1` [Example 23, (1R)-1-({4-[(2,3-Dihydro[1,4]oxathiino[2,3-c]pyridin-7-ylmethyl)amino]-4-methyl-1-piperidinyl}methyl)-1,2-dihydro-4H,9H-imidazo[1,2,3-ij]-1,8-naphthyridine-4,9-dione hydrochloride], the MIC is less than 2 µg/mL.

In the case of `CC1(NCc2cc3c(cn2)OCS3)CCN(C[C@@H]2Cn3c(=O)ccc4ccc(=O)n2c43)CC1` [Example 24, (1R)-1-({4-Methyl-4-[([1,3]oxathiolo[5,4-c]pyridin-6-ylmethyl)amino]-1-piperidinyl}methyl)-1,2-dihydro-4H,9H-imidazo[1,2,3-ij]-1,8-naphthyridine-4,9-dione hydrochloride], the MIC was less than 2 µg/mL.

As to `O=c1ccc2ncc(=O)n3c2n1C[C@H]3CN1CCC(NCc2cc3c(cn2)SCO3)CC1` [Example 28, (2R)-2-({4-[([1,3]Oxathiolo[4,5-c]pyridin-6-ylmethyl)amino]-1-piperidinyl}methyl)-1,2-dihydro-3H,8H-2a,5,8a-triazaacenaphthylene-3,8-dione hydrochloride], the MIC is less than 2 µg/mL.

Turning to `O=C1CSc2ccc(CNC3CCN(C[C@@H]4Cn5c(=O)ccc6ncc(=O)n4c65)CC3)nc2N1` [Example 29, (2R)-2-[(4-{[(3-Oxo-3,4-dihydro-2H-pyrido[3,2-b][1,4]thiazin-6-yl)methyl]amino}-1-piperidinyl)methyl]-1,2-dihydro-3H,8H-2a,5,8a-triazaacenaphthylene-3,8-dione hydrochloride], the MIC is less than 2 µg/mL.

On to `O=c1ccc2ccc(=O)n3c2n1C[C@H]3CN1CCC(NCc2ccc3c(c2)OCCO3)CC1` [Example 30, (1R)-1-({4-[(2,3-Dihydro-1,4-benzodioxin-6-ylmethyl)amino]-1-piperidinyl}methyl)-1,2-dihydro-4H,9H-imidazo[1,2,3-ij]-1,8-naphthyridine-4,9-dione hydrochloride], for which the MIC was less than 2 µg/mL.

For `O=c1ccc2ccc(=O)n3c2n1C[C@H]3CN1CCC(NCc2cc(F)c3c(c2)OCCO3)CC1` [Example 31, (1R)-1-[(4-{[(8-Fluoro-2,3-dihydro-1,4-benzodioxin-6-yl)methyl]amino}-1-piperidinyl)methyl]-1,2-dihydro-4H,9H-imidazo[1,2,3-ij]-1,8-naphthyridine-4,9-dione hydrochloride], the MIC was less than 2 µg/mL.

As to `O=C1COc2cc(Cl)c(CNC3CCN(C[C@@H]4Cn5c(=O)ccc6ccc(=O)n4c65)CC3)nc2N1` [Example 32, (1R)-1-[(4-{[(7-Chloro-3-oxo-3,4-dihydro-2H-pyrido[3,2-b][1,4]oxazin-6-yl)methyl]amino}-1-piperidinyl)methyl]-1,2-dihydro-4H,9H-imidazo[1,2,3-ij]-1,8-naphthyridine-4,9-dione dihydrochloride], the MIC was less than 2 µg/mL.

Staying with this assay, now noted: ATCC 25618 / H37Rv, 144 h, read-out: MIC value, H37Rv strain (ATCC25618), Middlebrook 7H9+ADC, six days at 37° C., resazurin fluorescence after 48 hours.
`O=c1ccc2ncc(=O)n3c2n1CC3CN1CCC(NCc2cc3c(cn2)OCCS3)CC1` (racemic) [Example 20, 2-({4-[(2,3-Dihydro[1,4]oxathiino[2,3-c]pyridin-7-ylmethyl)amino]-1-piperidinyl}methyl)-1,2-dihydro-3H,8H-2a,5,8a-triazaacenaphthylene-3,8-dione hydrochloride]: the MIC is less than 2 µg/mL.

In the case of `O=c1ccc2ccc(=O)n3c2n1CC3CN1CCC(NCc2cc3c(cn2)OCS3)CC1` (stereo not shown) [Example 2, 1-({4-[([1,3]Oxathiolo[5,4-c]pyridin-6-ylmethyl)amino]-1-piperidinyl}methyl)-1,2-dihydro-4H,9H-imidazo[1,2,3-ij]-1,8-naphthyridine-4,9-dione hydrochloride], the MIC was less than 2 µg/mL.

For `O=c1ccc2ccc(=O)n3c2n1C[C@H]3CN1CCC(NCc2cc3c(cn2)OCS3)CC1` [Example 5A, (1R)-1-({4-[([1,3]Oxathiolo[5,4-c]pyridin-6-ylmethyl)amino]-1-piperidinyl}methyl)-1,2-dihydro-4H,9H-imidazo[1,2,3-ij]-1,8-naphthyridine-4,9-dione hydrochloride], the MIC is less than 2 µg/mL.

In the case of `O=c1ccc2ccc(=O)n3c2n1C[C@H]3CN1CCC(NCc2cc3c(cn2)OCCS3)CC1` [Example 6A, (1R)-1-({4-[(2,3-Dihydro[1,4]oxathiino[2,3-c]pyridin-7-ylmethyl)amino]-1-piperidinyl}methyl)-1,2-dihydro-4H,9H-imidazo[1,2,3-ij]-1,8-naphthyridine-4,9-dione hydrochloride], the MIC was less than 2 µg/mL.

With `O=c1ccc2ccc(=O)n3c2n1C[C@H]3CN1CCC(NCc2cc3c(cn2)CCCC3)CC1` [Example 7, (1R)-1-({4-[(5,6,7,8-Tetrahydro-3-isoquinolinylmethyl)amino]-1-piperidinyl}methyl)-1,2-dihydro-4H,9H-imidazo[1,2,3-ij]-1,8-naphthyridine-4,9-dione hydrochloride], the MIC is less than 2 µg/mL.

Consider `O=c1ccc2ccc(=O)n3c2n1C[C@H]3CN1CCC(NCc2cc3c(cn2)CCC3)CC1` [Example 8, (1R)-1-({4-[(6,7-Dihydro-5H-cyclopenta[c]pyridin-3-ylmethyl)amino]-1-piperidinyl}methyl)-1,2-dihydro-4H,9H-imidazo[1,2,3-ij]-1,8-naphthyridine-4,9-dione hydrochloride], for which the MIC is less than 2 µg/mL.

For `O=c1cnc2ccc(=O)n3c2n1C[C@H]3CN1CCC(NCc2cc3c(cn2)OCS3)CC1` [Example 13A, (1R)-1-({4-[([1,3]Oxathiolo[5,4-c]pyridin-6-ylmethyl)amino]-1-piperidinyl}methyl)-1,2-dihydro-3H,8H-2a,5,8a-triazaacenaphthylene-3,8-dione hydrochloride], the MIC was less than 2 µg/mL.

Consider `O=c1cnc2ccc(=O)n3c2n1C[C@H]3CN1CCC(NCc2cc3c(cn2)OCCS3)CC1` [Example 14, (1R)-1-({4-[(2,3-Dihydro-[1,4]oxathiino[2,3-c]pyridin-7-ylmethyl)amino]-1-piperidinyl}methyl)-1,2-dihydro-3H,8H-2a,5,8a-triazaacenaphthylene-3,8-dione hydrochloride], for which the MIC is less than 2 µg/mL.

With `O=c1ccc2ncc(=O)n3c2n1C[C@H]3CN1CCC(NCc2cc3c(cn2)OCS3)CC1` [Example 16A, (2R)-2-({4-[([1,3]Oxathiolo[5,4-c]pyridin-6-ylmethyl)amino]-1-piperidinyl}methyl)-1,2-dihydro-3H,8H-2a,5,8a-triazaacenaphthylene-3,8-dione hydrochloride], the MIC is less than 2 µg/mL.

Turning to `O=c1ccc2ncc(=O)n3c2n1C[C@H]3CN1CCC(NCc2cc3c(cn2)OCCS3)CC1` [Example 19A, (2R)-2-({4-[(2,3-Dihydro[1,4]oxathiino[2,3-c]pyridin-7-ylmethyl)amino]-1-piperidinyl}methyl)-1,2-dihydro-3H,8H-2a,5,8a-triazaacenaphthylene-3,8-dione hydrochloride], the MIC is less than 2 µg/mL.

As for `O=c1ccc2ncc(=O)n3c2n1C[C@H]3CN1CCC(NCc2ccc3nsnc3c2)CC1` [Example 25, (2R)-2-({4-[(2,1,3-Benzothiadiazol-5-ylmethyl)amino]-1-piperidinyl}methyl)-1,2-dihydro-3H,8H-2a,5,8a-triazaacenaphthylene-3,8-dione hydrochloride], the MIC is no more than 1 µg/mL.

On to `O=c1ccc2ncc(=O)n3c2n1C[C@H]3CN1CCC(NCc2cc3c(cc2F)OCCO3)CC1` [Example 26, (2R)-2-[(4-{[(7-Fluoro-2,3-dihydro-1,4-benzodioxin-6-yl)methyl]amino}-1-piperidinyl)methyl]-1,2-dihydro-3H,8H-2a,5,8a-triazaacenaphthylene-3,8-dione hydrochloride], for which the MIC is no more than 1 µg/mL.

On to `O=C1CSc2cnc(CNC3CCN(C[C@@H]4Cn5c(=O)ccc6ccc(=O)n4c65)CC3)nc2N1` [Example 34, (1R)-1-[(4-{[(7-Oxo-6,7-dihydro-1H-pyrimido[5,4-b][1,4]thiazin-2-yl)methyl]amino}-1-piperidinyl)methyl]-1,2-dihydro-4H,9H-imidazo[1,2,3-ij]-1,8-naphthyridine-4,9-dione dihydrochloride], for which the MIC was less than 2 µg/mL.

Turning to `O=c1cnc2ccc(=O)n3c2n1C[C@H]3CN1CCC(NCc2cc3c(cn2)OCCC3)CC1` [Example 37, (1R)-1-({4-[(3,4-Dihydro-2H-pyrano[2,3-c]pyridin-6-ylmethyl)amino]-1-piperidinyl}methyl)-1,2-dihydro-3H,8H-2a,5,8a-triazaacenaphthylene-3,8-dione hydrochloride], the MIC is less than 2 µg/mL.

As to `O=c1ccc2ncc(=O)n3c2n1C[C@H]3CN1CCC(NCc2ccc3c(c2)OCCO3)CC1` [Example 40, (2R)-2-({4-[(2,3-Dihydro-1,4-benzodioxin-6-ylmethyl)amino]-1-piperidinyl}methyl)-1,2-dihydro-3H,8H-2a,5,8a-triazaacenaphthylene-3,8-dione hydrochloride], the MIC is less than 2 µg/mL.

Take `N#Cc1cc(CNC2CCN(C[C@@H]3Cn4c(=O)ccc5ncc(=O)n3c54)CC2)cc2c1OCCO2` [Example 42, 7-{[(1-{[(2R)-3,8-Dioxo-1,2-dihydro-3H,8H-2a,5,8a-triazaacenaphthylen-2-yl]methyl}-4-piperidinyl)amino]methyl}-2,3-dihydro-1,4-benzodioxin-5-carbonitrile hydrochloride]: the MIC is less than 2 µg/mL.
